From US20130158098A1, “Alkenyl Substituted Cycloaliphatic Compounds as Chemical Inducers of Proximity” (priority 2010, published 2013)

How the values were obtained:
[1] = biological target: T1, GFP-PYLcs and ABIcs localization fusion proteins (Arabidopsis thaliana, UniProt Q8VZS8); assay: ABA-induced subcellular relocalization of PYLcs fusion proteins; format: cell-based; conditions: NLS-ABIcs present; HEK 293T cells
T1 construct: A fragment of PYL1 (aa 33-209) is fused to full length GFP or SOS; HA (from the reverse primer); expressed in transfected cells; host or cells: HEK 293 / HEK 293T
T1 sequence (Q8VZS8 33-209): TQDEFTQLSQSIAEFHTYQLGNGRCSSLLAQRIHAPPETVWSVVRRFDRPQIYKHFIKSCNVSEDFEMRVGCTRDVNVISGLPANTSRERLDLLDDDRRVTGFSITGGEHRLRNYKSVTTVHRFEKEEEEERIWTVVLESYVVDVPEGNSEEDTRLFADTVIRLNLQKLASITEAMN
T1 sequence (P49597 126-434 partner): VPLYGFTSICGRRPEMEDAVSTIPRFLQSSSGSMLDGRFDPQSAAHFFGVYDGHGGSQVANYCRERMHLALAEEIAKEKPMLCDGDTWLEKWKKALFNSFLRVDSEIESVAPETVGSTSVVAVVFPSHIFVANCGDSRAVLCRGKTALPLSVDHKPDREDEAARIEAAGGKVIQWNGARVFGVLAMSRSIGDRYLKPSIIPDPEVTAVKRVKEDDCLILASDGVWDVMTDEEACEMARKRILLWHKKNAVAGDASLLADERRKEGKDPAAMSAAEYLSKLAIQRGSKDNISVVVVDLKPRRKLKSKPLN
Protocol: (§1) A fragment of ABI1 (aa 126-423) is either fused to full length mouse Brg, full length mouse Numb, full length human CD4 or myristoylation signal. A fragment of PYL1 (aa 33-209) is fused to full length GFP or SOS. Full length SOS is fused either to myristoylation signal or three copies of FKBP12.
(§2) Cells grown on glass coverslips were washed in phosphate-buffered saline (PBS) and fixed with 4% paraformaldehyde (PFA, prepared in PBS) at room temperature for 20 min. After three 5-min washes in PBS, the cells were permeabilized with 5% normal goat serum and 0.1% Triton X-100 in PBS at room temperature for 30 min and incubated with primary antibodies (FLAG antibody M2, Agilent, cat. #200472-21) at 4° C. overnight in the same buffer. The slides were subsequently washed three times with PBS (5 min each wash) and then incubated with Alexa fluorophore 594-conjugated secondary antibodies (Molecular Probes) for 1 hour at room temperature in the dark. Slides were washed three times in PBS for 5 min. Finally, the slides were mounted in Vectashield containing 4′,6-diamidino-2-phenylindole (DAPI; H-1500, Vector Laboratories) and imaged (63×) with a Leica DM5000B microscope.
(§3) The area and integrated fluorescence intensity of the whole cell and the nucleus were measured with Fiji (an open-source image processing package based on ImageJ) for images from the cytoplasmic or nuclear localization experiments. The area and the integrated fluorescence intensity of the cytoplasm were calculated by subtracting the value of the nucleus from the whole cell. The mean fluorescence intensity of nucleus or cytoplasm was calculated by dividing the integrated fluorescence intensity with the area of each subcellular compartment. The ratio between nuclear or cytoplasmic distribution was calculated by comparing the corresponding mean fluorescence intensity. Twenty cells were measured in each experiment.
(§4) The activities of proteins are often regulated by their subcellular localization. In another variation of domain reconstitution, the ability of ABA-induced proximity to control the localization of a chosen protein was tested. Fusions of ABIcs to specific subcellular localization domains were constructed and ABA was used to dimerize these ABIcs localization fusion proteins to green fluorescent protein (GFP)-fused PYLcs. The relocation of GFP-PYLcs to four subcellular locations was induced by fusing ABIcs to (i) Numb to serve as a cytoplasmic localization partner (Dho, S. E. et al. (1999) Characterization of four mammalian Numb protein isoforms: Identification of cytoplasmic and membrane-associated variants of the phosphotyrosine binding domain. J. Biol. Chem. 274, 33097-33104), (ii) to a nuclear localization sequence (NLS) or to Brg1 (Brm/SWI2-related gene 1) to serve as nuclear localization partners (Khavari, P. A. et al. (1993) BRG1 contains a conserved domain of the SWI2/SNF2 family necessary for normal mitotic growth and transcription. Nature 366, 170-174), (iii) to CD4 (cluster of differentiation 4) to serve as a plasma membrane localization partner (Sattentau, Q. J. et al. (1988) The CD4 antigen: Physiological ligand and HIV receptor. Cell 52, 631-633), or (iv) to a myristoylation (myr) sequence to serve as a plasma membrane and an intracellular membrane localization partner (Holsinger, L. J. et al. (1995) Signal transduction in T lymphocytes using a conditional allele of Sos. Proc. Natl. Acad. Sci. U.S.A. 92, 9810-9814)).

[2] = biological target: T2, GFP-PYLcs and ABIcs localization fusion proteins (Arabidopsis thaliana, UniProt Q8VZS8); assay: as above; format: cell-based
T2 construct: A fragment of PYL1 (aa 33-209) is fused to full length GFP or SOS; HA (from the reverse primer); expressed in transfected cells; host or cells: HEK 293 / HEK 293T
T2 sequence (Q8VZS8 33-209): T1 sequence (Q8VZS8 33-209)
T2 sequence (P49597 126-423 partner): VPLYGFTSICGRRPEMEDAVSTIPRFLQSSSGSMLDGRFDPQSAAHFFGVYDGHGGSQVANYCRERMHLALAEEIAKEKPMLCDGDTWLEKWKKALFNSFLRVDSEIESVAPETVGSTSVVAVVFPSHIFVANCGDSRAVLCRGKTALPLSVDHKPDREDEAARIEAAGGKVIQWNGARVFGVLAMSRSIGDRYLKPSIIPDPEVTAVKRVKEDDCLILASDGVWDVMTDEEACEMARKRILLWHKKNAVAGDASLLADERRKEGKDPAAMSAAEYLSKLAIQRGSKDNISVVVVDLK
Protocol: as §1, §2, §3, §4

SMILES: CC1=CC(=O)CC(C)(C)C1(O)/C=C/C(C)=C/C(=O)O (centres unmarked) [ABA, abscisic acid]
- redistribution of cytoplasmic Numb-GFP-PYLcs into the nucleus [1]: triggered the redistribution
- time to relocalization of mCherry-PYLcs to Brg-ABIcs (nucleus) ([2]; 293T cells, ABA and Rap added together): ≤ 30 min
- membrane localization of GFP-PYLcs to myr-ABIcs, specificity ([2]; 293T cells, ABA or Rap added): observed only when the matching small molecule was added
- time to relocation of GFP-PYLcs to the nucleus or membrane ([2]; Brg1-ABIcs or CD4-ABIcs, HEK 293T cells): ≤ 30 min
- time to cytoplasmic accumulation of GFP-PYLcs ([2]; Numb-ABIcs, HEK 293T cells): ≤ 30 min
